{"source": "patent US20020137929A1", "about": "“1 - (3-heterocyclylphenyl) isothiourea, -isourea, -guanidine and -amidine herbicidal agents” (Intellectual Property Department, BASF Aktiengesellschaft, priority 1998, published 2002)", "key": {"ABUTH (Velvetleaf)": {"test_system": "ABUTH (Velvetleaf)", "assay": "Postemergence herbicidal evaluation", "assay_type": "in vivo, Abutilon theophrasti", "conditions": "postemergence", "how_it_was_run": "(§1)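 Visual 0-9 injury score (stand, vigor, malformation, size, chlorosis, appearance vs untreated) taken four to five weeks post-spray, averaged across repeat tests. Test plants about two weeks old; foliar spray of acetone/water (1:1) with 0.5% surfactant delivering ~0.0156-0.500 kg active/ha.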"}, "[1]": {"test_system": "CHEAL (Lambsquarters, Common)", "assay": "Postemergence herbicidal evaluation", "assay_type": "in vivo, Chenopodium album", "conditions": "postemergence", "how_it_was_run": "as §1"}, "SETVI (Foxtail, Green) [2]": {"test_system": "SETVI (Foxtail, Green)", "assay": "Postemergence herbicidal evaluation", "assay_type": "in vivo, Setaria viridis", "conditions": "postemergence", "how_it_was_run": "as §1"}, "[3]": {"test_system": "GLXMAW (Soybean, Williams)", "assay": "Postemergence herbicidal evaluation", "assay_type": "in vivo, Glycine max, (L.) Merr. cv Williams", "conditions": "postemergence", "how_it_was_run": "as §1"}, "ORYSAT (Rice, Tebonnet)": {"test_system": "ORYSAT (Rice, Tebonnet)", "assay": "Postemergence herbicidal evaluation", "assay_type": "in vivo, Oryza sativa, (L.) Tebonnet", "conditions": "postemergence", "how_it_was_run": "as §1"}, "[4]": {"test_system": "TRZAWR (Wheat, Winter, cv Riband)", "assay": "Postemergence herbicidal evaluation", "assay_type": "in vivo, Triticum aestivum", "conditions": "postemergence", "how_it_was_run": "as §1"}, "ZEAMX (Corn, Field)": {"test_system": "ZEAMX (Corn, Field)", "assay": "Postemergence herbicidal evaluation", "assay_type": "in vivo, Zea mays", "conditions": "postemergence", "how_it_was_run": "as §1"}, "AMBEL (Ragweed, Common)": {"test_system": "AMBEL (Ragweed, Common)", "assay": "Preemergence herbicidal evaluation", "assay_type": "in vivo, Ambrosia artemisifolia", "conditions": "rated 4-5 weeks after treatment", "how_it_was_run": "(§2)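 In this greenhouse assay, monocot and dicot seeds are planted in soil and treated prior to emergence with an aqueous acetone spray (about 0.0156-0.500 kg/ha). Plants are assessed visually against control on a 0-9 scale after 4-5 weeks.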"}, "GALAP (Galium)": {"test_system": "GALAP (Galium)", "assay": "Preemergence herbicidal evaluation", "assay_type": "in vivo, Galium aparine", "conditions": "rated 4-5 weeks after treatment", "how_it_was_run": "as §2"}, "SETVI (Foxtail, Green) [5]": {"test_system": "SETVI (Foxtail, Green)", "assay": "Preemergence herbicidal evaluation", "assay_type": "in vivo, Setaria viridis", "conditions": "rated 4-5 weeks after treatment", "how_it_was_run": "as §2"}, "CYPIR (Rice Flatsedge)": {"test_system": "CYPIR (Rice Flatsedge)", "assay": "Preemergence weed control under flooded paddy conditions", "assay_type": "in vivo, Cyperus iria", "conditions": "rated 3-4 weeks after treatment", "how_it_was_run": "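Flooded-pot preemergence screen with silt loam and seeds in the upper 0.5 cm. Dose about 0.0313 to 0.500 kg/ha, delivered into flood water; visual 0-9 score after 3 to 4 weeks.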"}, "[6]": {"test_system": "ECHORC (Watergrass (Calif.))", "assay": "Postemergence weed control under flooded paddy conditions", "assay_type": "in vivo, Echinochloa oryzoides", "conditions": "postemergence weeds, rated 3 to 4 weeks after treatment", "how_it_was_run": "(§3)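 Weeds 3 to 5 cm tall and rice seedlings at the 1.5 to 2.5 leaf stage were flooded, with water held 1.5 to 3 cm above the soil. Compounds in 50/50 v/v aqueous/acetone went into the flood water at about 0.0313 to 0.500 kg/ha. Visual 0-9 ratings versus control were made 3 to 4 weeks later.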"}, "CYPSE (Flatsedge)": {"test_system": "CYPSE (Flatsedge)", "assay": "Postemergence weed control under flooded paddy conditions", "assay_type": "in vivo, Cyperus serotinus", "conditions": "postemergence weeds, rated 3 to 4 weeks after treatment", "how_it_was_run": "as §3"}, "[7]": {"test_system": "SAGPY (Arrowhead (Pygmaea))", "assay": "Postemergence weed control under flooded paddy conditions", "assay_type": "in vivo, Sagittaria pygmaea", "conditions": "postemergence weeds, rated 3 to 4 weeks after treatment", "how_it_was_run": "as §3"}}, "data": [{"smiles": "CCOC(=O)[C@H](C)N1C(=O)CSC1=Nc1cc(-n2c(=O)cc(C(F)(F)F)n(C)c2=O)c(F)cc1Cl", "note": "[Compound 76, Ethyl 2-{{2-chloro-5-[3,6-dihydro-3-methyl-2,6-dioxo-4-(trifluoromethyl)-1(2H)-pyrimidinyl]-4-fluorophenyl}imino}-α-methyl-4-oxo-3-thiazolidineacetate, L-]", "values": [{"measurement": "ABUTH herbicidal rating", "setting": "ABUTH (Velvetleaf); rate 0.0158 kg/ha", "result": 9.0}, {"measurement": "ABUTH herbicidal rating", "setting": "ABUTH (Velvetleaf); rate 0.0315 kg/ha", "result": 9.0}, {"measurement": "ABUTH herbicidal rating", "setting": "ABUTH (Velvetleaf); rate 0.0630 kg/ha", "result": 9.0}, {"measurement": "CHEAL herbicidal rating", "setting": "[1]; rate 0.0158 kg/ha", "result": 3.0}, {"measurement": "CHEAL herbicidal rating", "setting": "[1]; rate 0.0315 kg/ha", "result": 7.0}, {"measurement": "CHEAL herbicidal rating", "setting": "[1]; rate 0.0630 kg/ha", "result": 7.0}, {"measurement": "SETVI herbicidal rating", "setting": "SETVI (Foxtail, Green) [2]; rate 0.0158 kg/ha", "result": 1.0}, {"measurement": "SETVI herbicidal rating", "setting": "SETVI (Foxtail, Green) [2]; rate 0.0315 kg/ha", "result": 2.0}, {"measurement": "SETVI herbicidal rating", "setting": "SETVI (Foxtail, Green) [2]; rate 0.0630 kg/ha", "result": 9.0}, {"measurement": "GLXMAW herbicidal rating", "setting": "[3]; rate 0.0158 kg/ha", "result": 4.0}, {"measurement": "GLXMAW herbicidal rating", "setting": "[3]; rate 0.0315 kg/ha", "result": 5.5}, {"measurement": "GLXMAW herbicidal rating", "setting": "[3]; rate 0.0630 kg/ha", "result": 6.0}, {"measurement": "ORYSAT herbicidal rating", "setting": "ORYSAT (Rice, Tebonnet); rate 0.0158 kg/ha", "result": 3.0}, {"measurement": "ORYSAT herbicidal rating", "setting": "ORYSAT (Rice, Tebonnet); rate 0.0315 kg/ha", "result": 4.0}, {"measurement": "ORYSAT herbicidal rating", "setting": "ORYSAT (Rice, Tebonnet); rate 0.0630 kg/ha", "result": 5.0}, {"measurement": "TRZAWR herbicidal rating", "setting": "[4]; rate 0.0158 kg/ha", "result": 3.5}, {"measurement": "TRZAWR herbicidal rating", "setting": "[4]; rate 0.0315 kg/ha", "result": 5.0}, {"measurement": "TRZAWR herbicidal rating", "setting": "[4]; rate 0.0630 kg/ha", "result": 5.5}, {"measurement": "ZEAMX herbicidal rating", "setting": "ZEAMX (Corn, Field); rate 0.0158 kg/ha", "result": 4.5}, {"measurement": "ZEAMX herbicidal rating", "setting": "ZEAMX (Corn, Field); rate 0.0315 kg/ha", "result": 6.0}, {"measurement": "ZEAMX herbicidal rating", "setting": "ZEAMX (Corn, Field); rate 0.0630 kg/ha", "result": 7.0}, {"measurement": "Preemergence herbicidal rating AMBEL", "setting": "AMBEL (Ragweed, Common); rate 0.0156 kg/ha", "result": 0.0}, {"measurement": "Preemergence herbicidal rating AMBEL", "setting": "AMBEL (Ragweed, Common); rate 0.0313 kg/ha", "result": 0.0}, {"measurement": "Preemergence herbicidal rating AMBEL", "setting": "AMBEL (Ragweed, Common); rate 0.0625 kg/ha", "result": 7.0}, {"measurement": "Preemergence herbicidal rating AMBEL", "setting": "AMBEL (Ragweed, Common); rate 0.1250 kg/ha", "result": 9.0}, {"measurement": "Preemergence herbicidal rating AMBEL", "setting": "AMBEL (Ragweed, Common); rate 0.2500 kg/ha", "result": 9.0}, {"measurement": "Preemergence herbicidal rating GALAP", "setting": "GALAP (Galium); rate 0.0156 kg/ha", "result": 0.0}, {"measurement": "Preemergence herbicidal rating GALAP", "setting": "GALAP (Galium); rate 0.0313 kg/ha", "result": 0.0}, {"measurement": "Preemergence herbicidal rating GALAP", "setting": "GALAP (Galium); rate 0.0625 kg/ha", "result": 0.0}, {"measurement": "Preemergence herbicidal rating GALAP", "setting": "GALAP (Galium); rate 0.1250 kg/ha", "result": 1.0}, {"measurement": "Preemergence herbicidal rating GALAP", "setting": "GALAP (Galium); rate 0.2500 kg/ha", "result": 9.0}, {"measurement": "Preemergence herbicidal rating SETVI", "setting": "SETVI (Foxtail, Green) [5]; rate 0.0156 kg/ha", "result": 0.0}, {"measurement": "Preemergence herbicidal rating SETVI", "setting": "SETVI (Foxtail, Green) [5]; rate 0.0313 kg/ha", "result": 6.0}, {"measurement": "Preemergence herbicidal rating SETVI", "setting": "SETVI (Foxtail, Green) [5]; rate 0.0625 kg/ha", "result": 7.0}, {"measurement": "Preemergence herbicidal rating SETVI", "setting": "SETVI (Foxtail, Green) [5]; rate 0.1250 kg/ha", "result": 9.0}, {"measurement": "Preemergence herbicidal rating SETVI", "setting": "SETVI (Foxtail, Green) [5]; rate 0.2500 kg/ha", "result": 9.0}, {"measurement": "CYPIR herbicidal effect rating", "setting": "CYPIR (Rice Flatsedge); 0.0313 kg/ha", "result": 0.0}, {"measurement": "CYPIR herbicidal effect rating", "setting": "CYPIR (Rice Flatsedge); 0.0625 kg/ha", "result": 0.0}, {"measurement": "CYPIR herbicidal effect rating", "setting": "CYPIR (Rice Flatsedge); 0.1250 kg/ha", "result": 0.0}, {"measurement": "CYPIR herbicidal effect rating", "setting": "CYPIR (Rice Flatsedge); 0.2500 kg/ha", "result": 6.0}, {"measurement": "Herbicidal rating ECHORC", "setting": "[6]; Rate 0.0313 kg/ha", "result": 4.0}, {"measurement": "Herbicidal rating ECHORC", "setting": "[6]; Rate 0.0625 kg/ha", "result": 7.0}, {"measurement": "Herbicidal rating ECHORC", "setting": "[6]; Rate 0.1250 kg/ha", "result": 9.0}, {"measurement": "Herbicidal rating ECHORC", "setting": "[6]; Rate 0.2500 kg/ha", "result": 9.0}, {"measurement": "Herbicidal rating CYPSE", "setting": "CYPSE (Flatsedge); Rate 0.0313 kg/ha", "result": 2.0}, {"measurement": "Herbicidal rating CYPSE", "setting": "CYPSE (Flatsedge); Rate 0.0625 kg/ha", "result": 2.0}, {"measurement": "Herbicidal rating CYPSE", "setting": "CYPSE (Flatsedge); Rate 0.1250 kg/ha", "result": 2.0}, {"measurement": "Herbicidal rating CYPSE", "setting": "CYPSE (Flatsedge); Rate 0.2500 kg/ha", "result": 3.0}, {"measurement": "Herbicidal rating SAGPY", "setting": "[7]; Rate 0.0313 kg/ha", "result": 0.0}, {"measurement": "Herbicidal rating SAGPY", "setting": "[7]; Rate 0.0625 kg/ha", "result": 0.0}, {"measurement": "Herbicidal rating SAGPY", "setting": "[7]; Rate 0.1250 kg/ha", "result": 4.0}, {"measurement": "Herbicidal rating SAGPY", "setting": "[7]; Rate 0.2500 kg/ha", "result": 4.0}]}]}
